PubChem BioAssay (NCI)
Where “and” joins values, the source holds several entries; their conditions need not be identical. Equal values may be shown once.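 The compound was tested at five concentrations on cells cultured in 96-well plates, with a 48-hour exposure period. GI50 = concentration required for 50% inhibition of growth. At the TGI there is no net growth.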

How the values were obtained:
Experiment in all cases: NCI anticancer screen, dose series, 48 h
RXF 393 renal = test system: RXF 393 renal
NCI-H522 lung = test system: NCI-H522 lung
HS 578T breast = test system: HS 578T breast
BT-549 breast = test system: BT-549 breast
SK-MEL-2 melanoma = test system: SK-MEL-2 melanoma
NCI/ADR-RES ovarian = test system: NCI/ADR-RES ovarian
IGROV1 ovarian = test system: IGROV1 ovarian
K-562 leukemia = test system: K-562 leukemia
SNB-75 CNS = test system: SNB-75 CNS
CCRF-CEM leukemia = test system: CCRF-CEM leukemia
TK-10 renal = test system: TK-10 renal
HCC-2998 colon = test system: HCC-2998 colon

Row | Compound | TGI (RXF 393 renal) | TGI (NCI-H522 lung) | TGI (HS 578T breast) | TGI (BT-549 breast) | TGI (SK-MEL-2 melanoma) | TGI (NCI/ADR-RES ovarian) | TGI (IGROV1 ovarian) | TGI (K-562 leukemia) | TGI (SNB-75 CNS) | TGI (CCRF-CEM leukemia) | TGI (TK-10 renal) | TGI (HCC-2998 colon) | GI50 (HCC-2998 colon) | GI50 (SK-MEL-2 melanoma) | GI50 (NCI/ADR-RES ovarian) | GI50 (TK-10 renal)
1 | CN(C)CCCOc1nc2c(c(=O)n(C)c(=O)n2C)n1C (tested in a mixture with another compound) | > 100 µM | > 100 µM | > 100 µM | > 100 µM | > 100 µM | > 100 µM | > 100 µM | > 100 µM | > 100 µM | > 100 µM | 42.1 µM |  |  |  |  | 
2 | O=C(O)CN(CCNC(=O)OCC1c2ccccc2-c2ccccc21)CCNC(=O)OCC1c2ccccc2-c2ccccc21 | 67.7 µM | 32.3 µM | > 100 µM | 67.4 µM | 46.6 µM | > 100 µM | 45.7 µM | 39.9 µM | 67.5 µM | 63 µM | 50.6 µM | 51.3 µM |  |  |  | 
3 | CN1C(=O)C2C(=O)N(Cc3ccccc3)CC(=O)N2c2cccnc21 (stereo not given) | > 100 µM | > 100 µM | > 100 µM | > 100 µM | > 100 µM | > 100 µM | > 100 µM | > 100 µM | > 100 µM | > 100 µM | > 100 µM |  |  |  |  | 
4 | CC1(O)CC(C(F)(F)F)(C(F)(F)F)OC1=O (stereo not given) |  | > 10 µM | > 10 µM | > 10 µM |  | > 10 µM | > 10 µM | > 10 µM |  | > 10 µM | > 10 µM | > 10 µM |  |  |  | 
5 | O=C1/C(=C/c2ccccc2)N=C(c2ccccc2)N1n1c(-c2ccccc2)nc2ccccc2c1=O | > 100 µM | > 100 µM | > 100 µM | > 100 µM |  | > 100 µM | > 100 µM | > 100 µM | > 100 µM | > 100 µM | > 100 µM | > 100 µM |  |  |  | 
6 | C=C1CC(COc2cc(=O)oc3ccccc23)(c2ccccc2)OC1=O (stereo not given) |  | 3.88 µM | 27.5 µM | 2.97 µM | 2.33 µM | 25.1 µM | 3.07 µM | 3.1 µM | 12.3 µM | 2.26 µM | 3.89 µM | 4.21 µM |  |  |  | 
7 | COc1ccccc1Nc1nc(N)nc(N)c1N=O | > 100 µM | > 100 µM | > 100 µM | > 100 µM | > 100 µM | > 100 µM | > 100 µM | > 100 µM | > 100 µM | > 100 µM | > 100 µM | > 100 µM |  |  |  | 
8 | NCC1CCN(c2nc3ccccc3c3c2CCCC3)CC1 | 11.7 µM | 19.8 µM | > 100 µM | 28 µM | 11.3 µM | 32.3 µM | 24.5 µM | 8.07 µM | 22.2 µM | 14.2 µM | 25.9 µM | 3.46 µM |  |  |  | 
9 | C=C(C)C12CC(COC(=O)c3ccccc3)C34OC5(OC1C3C1OC1(CO)C(O)C1(O)C(OC(=O)c3ccccc3)C(C)C(C(C)CCCCCCC5O)C14)O2 (stereo not given) | > 100 µM | > 100 µM | > 100 µM | > 100 µM | > 100 µM | > 100 µM | > 100 µM | > 100 µM | > 100 µM | > 100 µM | 81.2 µM | > 64.8 µM |  |  |  | 
10 | CC(=O)OCC1OC(OC(C)(C)CC/C=C(\C)[C@@H]2C/C=C(\C)CC/C=C(\C)CC2)C(O)C(O)C1OC(C)=O (stereo not given in full) | > 100 µM | 28.8 µM and 37.4 µM | 30.5 µM | 88.6 µM and 34.8 µM | > 100 µM and 29.9 µM | > 100 µM and 38.7 µM | > 79.1 µM and 32 µM | 61.4 µM and > 100 µM | > 100 µM and 31.8 µM | 20.8 µM and 67 µM | > 100 µM and 38.3 µM | > 100 µM and 35.9 µM | 69.8 µM and 17.9 µM | > 64.3 µM and 16.4 µM | 45.8 µM and 19.5 µM | > 100 µM and 20.6 µM
11 | CN(CCC#N)c1ccc(/C=C2\SC(=S)NC2=O)cc1 | 96.9 µM | > 100 µM | > 100 µM | 79.2 µM | > 100 µM | > 100 µM | > 100 µM | > 100 µM | > 100 µM | > 100 µM | > 100 µM | > 100 µM |  |  |  | 
12 | O=C(NNC(=S)Nc1ccc(Cl)cc1)c1cc(-c2ccccc2)nc2ccccc12 | 21.9 µM | 23.2 µM | 32.4 µM | 19.2 µM | 9.89 µM | 30.7 µM | 26.7 µM | 93.1 µM | 39.8 µM | 6.91 µM | 21.7 µM | 11.5 µM |  |  |  | 
13 | NC(=O)N/N=C(\Cc1nc2ccc(Cl)cc2[nH]c1=O)C(=O)Nc1ccc(Cl)cc1Cl |  | > 100 µM | > 100 µM | > 100 µM | > 100 µM | > 100 µM | > 100 µM | > 100 µM | > 100 µM | > 100 µM | > 100 µM | > 100 µM |  |  |  | 
14 | Nc1ccc2nc(-c3ccccn3)c(-c3ccccn3)nc2c1 | > 100 µM | > 100 µM | > 100 µM | > 100 µM | > 100 µM | > 100 µM | > 100 µM | > 100 µM | > 100 µM | > 100 µM | > 100 µM | > 100 µM |  |  |  | 
15 | Brc1ccc(CCNCCN2CCCCC2)cc1 | 49.8 µM | 30.3 µM | 38.1 µM | 29.4 µM | 34.5 µM | 59.5 µM | 31 µM | > 100 µM | 26.3 µM | > 100 µM | 28.8 µM | 27.7 µM |  |  |  | 
16 | Cc1nc2c(sc(=S)n2-c2ccccc2)c2nc3ncccc3n12 | > 100 µM | > 100 µM | > 100 µM | > 100 µM | > 100 µM | > 100 µM | > 100 µM | > 100 µM | 64.5 µM | > 100 µM | > 100 µM | > 100 µM |  |  |  | 
17 | O=C(O)c1c2c(cc3c1CC1(Cc4ccccc4C1)C3)CCC2 | > 100 µM | > 100 µM | > 100 µM | > 100 µM |  | > 100 µM | > 100 µM | > 100 µM | > 100 µM | 66.7 µM | > 100 µM | > 100 µM |  |  |  | 
18 | Cc1ccc(C(=O)Nc2ccc(CP(=O)(O)O)cc2CP(=O)(O)O)cc1NC(=O)c1cccc(N)c1 | > 100 µM | > 100 µM | > 100 µM | > 100 µM | > 100 µM | > 100 µM | > 100 µM | > 100 µM | > 100 µM | > 100 µM | > 100 µM | > 100 µM |  |  |  | 
19 | Cc1nnc2n1N=C(c1cc(F)c(Cl)cc1Cl)/C(=C/c1ccc(Cl)cc1)S2 | 40.5 µM | > 100 µM | > 100 µM | 49 µM | 26.2 µM | 34.2 µM | 53.9 µM | > 100 µM |  | > 100 µM | > 100 µM | 28.5 µM |  |  |  | 
20 | OC1C2[C@@H](O)CCCN2C[C@@H](O)[C@H]1O (stereo not given in full) | > 100 µM | > 100 µM | > 100 µM | > 100 µM | > 100 µM | > 100 µM | > 100 µM | > 100 µM | > 100 µM | > 100 µM | > 100 µM | > 100 µM |  |  |  | 
21 | O=C(/C=C/c1ccc(O)c([N+](=O)[O-])c1)CC(=O)/C=C/c1ccc(O)c([N+](=O)[O-])c1 | > 100 µM | > 100 µM | > 100 µM | > 100 µM | > 100 µM | > 100 µM | 76.4 µM |  | > 100 µM | > 100 µM | > 100 µM |  |  |  |  | 
22 | CCOc1cc(NC(C)=O)ccc1C(=O)NNC(=O)c1ccccc1OC(C)=O | > 30.2 µM | > 100 µM | > 100 µM | > 100 µM | > 100 µM | > 78.7 µM | > 100 µM | > 40.3 µM | > 38.7 µM | > 100 µM | 7.03 µM | > 100 µM |  |  |  | 
23 | Cc1ccc([C@@H]2[C@@H](C(=O)c3ccccn3)[C@H](c3ccc(C)cc3)C[C@](O)(c3ccccn3)[C@H]2C(=O)c2ccccn2)cc1 | > 100 µM | > 100 µM | > 100 µM | > 100 µM | > 100 µM | > 100 µM | > 100 µM | > 100 µM | > 100 µM | 4.43 µM | > 100 µM | > 100 µM |  |  |  | 
24 | CCN(CC)CCc1c2c(nc3ccccc13)C(=O)c1cccnc1C2=O | 7 µM | 6.46 µM | > 100 µM | 7.56 µM | 10.4 µM | > 100 µM | 5.53 µM | 4.23 µM | 16.7 µM | 5.72 µM | 12.6 µM | 7.55 µM |  |  |  | 
25 | COCOC1/C=C/CCCCC2=C(C)C=C(C1)O2 (stereo not given) | > 100 µM | > 100 µM | > 100 µM | > 100 µM | > 100 µM | > 100 µM | > 100 µM | > 100 µM | > 100 µM | > 100 µM | > 100 µM | > 100 µM |  |  |  | 
26 | CSc1nc(Cl)c2c(n1)Sc1nc3cc4c(cc3n1C2O)OCCO4 (stereo not given) | 19.3 µM | 0.386 µM | 23.6 µM | 23.3 µM | 29.2 µM | 0.407 µM | 18 µM | 17.6 µM | 36.4 µM | 3.76 µM | 32.9 µM | 12.1 µM |  |  |  | 
27 | O=C(O)c1cc2c(cc1CC(Cc1ccc3c(c1)CCC3)C(=O)O)CCC2 (stereo not given) | > 100 µM | > 100 µM | > 100 µM | > 100 µM | > 100 µM | > 100 µM | > 100 µM |  | > 100 µM | > 100 µM | > 100 µM | > 100 µM |  |  |  | 
28 | S=C(N/N=C\C=N/NC(=S)N1CCCCC1)N1CCCCC1 | 6.06 µM | > 100 µM | > 51.9 µM | > 100 µM |  | > 22.3 µM | > 52.7 µM | > 100 µM | > 100 µM |  | > 100 µM | > 100 µM |  |  |  | 
